{"source": "patent US20230310435A1", "about": "“HOST DEFENSE PROTEIN (HDP) MIMETICS FOR PROPHYLAXIS AND/OR TREATMENT OF INFLAMMATORY DISEASES OF THE GASTROINTESTINAL TRACT” (priority 2015, published 2023)", "key": {"[1]": {"system": "LPS-induced TNF-α release, NR8383 cells", "test": "LPS-induced TNF-α production in NR8383 rat macrophages (ELISA)", "assay_type": "cell-based", "method": "Method for FIG. 5. TNF-alpha assays were performed using PMX-30063. […] TNF-α concentrations in the supernatants were determined by ELISA using an immunoassay kit specific for rat TNF-α (R&D Systems, Minneapolis, MN) according to manufacturer's instructions.\nMethod for FIG. 6. TNF-alpha assays were performed using PMX-60056. NR8383 rat macrophage cells were pretreated with PMX-60056 for 45 minutes followed by treatment with 1 μg/ml LPS from E. coli (Sigma, St. Louis, MO) for 8 hours. TNF-α concentrations in the supernatants were determined by ELISA using an immunoassay kit specific for rat TNF-α (R&D Systems, Minneapolis, MN) according to manufacturer's instructions.\nThe TNF-α inhibition assay was performed according to the Method described for FIG. 5. […] TNF-α concentrations in the supernatants were determined by ELISA using an immunoassay kit specific for rat TNF-α (R&D Systems).\nThe TNF-α inhibition assay was performed according to the Method described for FIG. 6. NR8383 rat macrophage cells (CRL-2192. ATCC) were pretreated with PMX-60056 for 45 minutes followed by treatment with 1 μg/ml LPS for 8 hours. TNF-α concentrations in the supernatants were determined by ELISA using an immunoassay kit specific for rat TNF-α (R&D Systems).\n(§1) PDE4 and PDE3 inhibition results in subsequent down-regulation of pro-inflammatory cytokines/chemokines and its regulators, and experiments were conducted to confirm such down-regulation by brilacidin in ex vivo cell-based assays. In these assays, cells were exposed to brilacidin 45 minutes before an 8-hour lipopolysaccharide (LPS) stimulation in the presence of brilacidin; cytokine/enzyme concentrations were determined by ELISA using a standard immunoassay kit."}, "[2]": {"system": "LPS-induced MCP-1 release, NR8383 cells", "test": "LPS-induced MCP-1 release in NR8383 rat macrophages (ELISA)", "assay_type": "cell-based", "method": "Method for FIG. 7. […] After 8 hours, supernatants were collected for MCP-1 measurement by ELISA. MCP-1 was measured using an immunoassay kit according to manufacturer's instructions (Thermo Scientific, Rockford. IL).\nMethod for FIG. 8. MCP-1 assays were performed using PMX-60056. Rat macrophages (NR8383) were pretreated with […] with concentrations shown for 45 minutes, followed by 1 μg/ml LPS treatment from E. coli (Sigma, St. Louis, MO) for 8 hours. After 8 hours, supernatants were collected for MCP-1 measurement by ELISA. MCP-1 was measured using an immunoassay kit according to manufacturer's instructions (Thermo Scientific, Rockford, IL).\nThe MCP-1 inhibition assay was performed according to the Method described for FIG. 7.\nThe MCP-1 inhibition assay was performed according to the Method described for FIG. 8.\nas §1"}, "[3]": {"system": "acetic acid-induced colitis", "assay_type": "in vivo", "settings": "for reduction of UC score: not significantly", "method": "Method for FIG. 14. […] Balb/c mice were fasted for 24 hours. Colitis was induced by injecting 200 μL of 4% acetic acid into the rectum. […] Another group of animals were treated with 5-ASA (5-aminosalicylic acid or mesalamine), and another received no treatment. Seven days after the first dose, five cm of intestine were cleaned in cold saline then weighed.\nMethod for FIG. 15. […] Balb/c mice were fasted for 24 hours. Colitis was induced by injecting 200 μL of 4% acetic acid into the rectum. […] Another group of animals were treated with 5-ASA (5-aminosalicylic acid or mesalamine), and another received no treatment. Seven days after the first dose the colon was examined visually for mucosal injury and scored according to the Table below.\nBriefly, colitis was induced by injecting 4% acetic acid into the rectum."}, "[4]": {"system": "DSS-induced colitis", "test": "Dextran sulfate sodium (DSS)-induced acute colitis model", "assay_type": "in vivo, male C57BL/6 mice", "method": "The efficacy of brilacidin administered was investigated in a murine model of chemically-induced acute colitis using dextran sulfate sodium (DSS). This was a different in vivo model of IBD to the testing performed in Examples 16 and 17 (where mucosal injury was induced by using acetic acid). DSS-induced colitis in mice is characterized by weight loss, bloody diarrhea, intestinal ulcerations and infiltrations with granulocytes. In mice, DSS was administered from Day 0 to Day 11, as a 5% (w/v) DSS solution in the drinking water of male C57BL/6 mice (Kim J J, et al., J. Vis. Exp., 2012, 60, 3678), to induce severe murine colitis. On Days 7-11, test compound brilacidin (400 mg/kg) or positive control 5-ASA (50 mg/kg) or water (negative control) were administered as a solution, per rectum. On Days 6, 10 and 11, rectal bleeding was assessed using a Hemoccult® kit and stool consistency was visually assessed; severity of symptoms were scored on a scale of 0 (normal) to 4 (severe). Level of pro-inflammatory cytokines interleukin (IL)-6 and IL-1β in distal colon tissue were determined from excised colons using conventional ELISA methods."}, "[5]": {"settings": "by Day 11, brilacidin 400 mg/kg per rectum Days 7-11, p<0.001"}, "[6]": {"settings": "end of study, brilacidin 400 mg/kg or 5-ASA 50 mg/kg per rectum Days 7-11"}}, "note": "pIC50: −log10 of the molar value. Structures can show the parent of a compound that is named as a salt. Where two headings read alike, the source gives them in different places."}
{"smiles": "N=C(N)NCCCCC(=O)Nc1cc(C(F)(F)F)cc(NC(=O)c2cc(C(=O)Nc3cc(C(F)(F)F)cc(NC(=O)CCCCNC(=N)N)c3O[C@@H]3CCNC3)ncn2)c1O[C@@H]1CCNC1", "note": "[PMX-30063, N^4,N^6-bis(2-((R)-pyrrolidin-3-yloxy)-3-((4-carbamoylbutyl)guanidine)-5-(trifluoromethyl)phenyl)pyrimidine-4,6-dicarboxamide tetrahydrochloride salt]", "values": [{"measurement": "effect on LPS-induced TNF-α production (in words)", "setting": "[1]; NR8383, 45 min pretreatment, 1 μg/ml LPS 8 h", "result": "inhibited"}, {"measurement": "inhibition at 0.5 µM", "setting": "[1]; Rattus norvegicus, Macrophage, 8 h", "result": "~50", "unit": "%"}, {"measurement": "pIC50", "setting": "[1]; Rattus norvegicus, Macrophage, NR8383 cells, ELISA, 45 min pretreatment, 8-hour LPS, read-out: IC50, inhibition of LPS-induced TNF-α release", "result": 6.35}, {"measurement": "effect on MCP-1 induction after LPS stimulation (in words)", "setting": "[2]; NR8383, 45 min pretreatment, LPS 1 μg/ml 8 h", "result": "strong inhibition"}, {"measurement": "pIC50", "setting": "[2]; Rattus norvegicus, Macrophage, NR8383 cells, ELISA, 45 min pretreatment, 8-hour LPS, read-out: IC50, inhibition of LPS-induced MCP-1 release", "result": 6.12}, {"measurement": "decrease in MCP-1 levels", "setting": "[2]; at 0.5 μM, NR8383, LPS 1 μg/ml 8 h", "result": "≥ 25", "unit": "%"}, {"measurement": "reduction of UC score", "setting": "[3]; 40 mg/kg (so in the source) intrarectally", "result": 67, "unit": "%"}, {"measurement": "reduction of median UC score", "setting": "[3]; 100 mg/kg intrarectally", "result": 33, "unit": "%"}, {"measurement": "reduction of UC score", "setting": "[3]; 200 mg/kg intrarectally", "result": 67, "unit": "%"}, {"measurement": "reduction of intestine weights compared to untreated controls", "setting": "[3]; 400 mg/kg intrarectally", "result": 17, "unit": "%"}, {"measurement": "ulcerative colitis score compared to untreated controls (in words)", "setting": "[3]; 400 mg/kg intrarectally", "result": "significantly reduced"}, {"measurement": "tolerability (in words)", "setting": "[3]; mouse, in vivo", "result": "well-tolerated"}, {"measurement": "ulcerative colitis score (in words)", "setting": "[3]; rectal administration, 100, 200, 400 mg/kg", "result": "dose dependent decrease"}, {"measurement": "intestine weights compared to untreated controls (in words)", "setting": "[3]; rectal administration, 100-400 mg/kg once daily", "result": "reduced, but not significantly"}, {"measurement": "rectal bleeding score compared to DSS-treated control (in words)", "setting": "[4]; [5]", "result": "significant decrease"}, {"measurement": "stool consistency compared to DSS-treated control (in words)", "setting": "[4]; [5]", "result": "significantly more firm"}, {"measurement": "mean reduction in IL-1β in distal colon tissue compared to DSS-treated control group", "setting": "[4]; [6]", "result": 27, "unit": "%"}, {"measurement": "mean reduction in IL-6 in distal colon tissue compared to DSS-treated control group", "setting": "[4]; [6]", "result": 40, "unit": "%"}]}
